In patent US20250134870A1, “PATHWAY MODULATOR, PHARMACEUTICAL COMPOSITION HAVING SAME, USE THEREOF, AND THERAPEUTIC METHOD USING SAME” (Jiangsu Yahong Meditech Co., Ltd., priority 2021, published 2025):

What was measured:
[1] = test system: IRBP R16-induced experimental autoimmune uveoretinitis (EAU); test: Bovine IRBP R16-induced experimental autoimmune uveoretinitis (EAU): clinical score, AUC, incidence (Example 6); assay type: in vivo, Lewis rats; settings: for Incidence rate (%): 0.4 mg/kg PO QD
Method: On Day-1 (i.e., the day before immunization, hereinafter), 60 rats were randomly divided into 6 groups (n=10) based on body weight (see Table 18). On Day 0, rats in Groups 2 to 6 were anesthetized with isoflurane, followed by subcutaneous injection of a total of […] of emulsion resulting from IRBP R16 and CFA emulsified at a 1:1 v/v ratio, on both thighs (50 μL at each site) and tail head (100 μL), respectively.
From Day 0 after immunization, the eyes of rats were checked daily with a flashlight by gently opening the upper and lower eyelids of the test rats, and the incidence of disease was recorded. Clinical symptoms were scored in a blind manner from the onset of disease to the end of the study according to the criteria listed in Table 17.
(§1) Dosing started from Day 0 accurately according to the animal body weight for a total of 16 days.
The results were expressed as “mean±standard error”. Graphpad Prism or SPSS was used for statistical analysis, and p<0.05 was considered statistically significant.

[2] = test system: imiquimod (IMQ)-induced psoriasis; test: Imiquimod (IMQ)-induced psoriasis in mice: erythema, scales, thickness, total score, AUC (Example 8); assay type: in vivo, Balb/c mice; design: key to erythema score / scales score / thickness score: 0 = none, 1 = mild, 2 = moderate, 3 = obvious/severe; key to total score of erythema + scales + thickness: sum of three 0-3 scores (erythema + scales + thickening), 0-9; settings: for erythema score / scales score: 2 mg/kg topical QD; for thickness score / total score of erythema + scales + thickness: positive control group
Method: All mice were shaved with a pet shaver to get an area of 2×3 cm on the back one day before the start of the experiment.
65 animals were randomly divided into groups according to body weight, and the dosing regimen was as follows.
Imiquimod (IMQ) cream: 62.5 mg of IMQ cream for each mouse in G2 to G7; Dexamethasone (DEX) ointment: 70 mg of ointment for each mouse in G4;
Tofacitinib: Tofacitinib was dissolved in dimethyl sulfoxide to 5 mg/mL, and 50 μL was added to IMQ cream for daily treatment.
Mice in Groups 2 to 7 received daily topical doses of 62.5 mg of IMQ cream on their shaved back from Day 0 to Day 7.
Dosing of the test compounds and reference substance was carried out according to Table 29 for 7 consecutive days.
To assess the severity of inflammation of skin on the back, the skin on the back was scored according to Table 30. Erythema, scales and thickening were scored independently on a scale of 0 to 3, 0, none; 1. mild; 2. moderate; 3. obvious/severe.
The inhibition rate was calculated according to the following formula: Inhibition rate=[AUC (solvent)−AUC (treatment)]/AUC (solvent)×100%. Wherein, solvent referred to the solvent group corresponding to the route of administration.

[3] = Body weight and weight change rate of EAU rats (Example 6); assay type: in vivo, Lewis rats; settings: 0.4 mg/kg PO QD
Excerpt: Wherein, Day 0 referred to the day of immunization. The body weight of each rat was monitored twice a week after immunization.
as §1

[4] = Body weight and spleen weight in IMQ-induced psoriasis mice (Example 8); assay type: in vivo, Balb/c mice; settings: 2 mg/kg topical QD × 7 days (G4)
Excerpt: 4) Spleen samples were collected and weighed (FIG. 23).
Body weight was monitored daily throughout the study. Continuous use of IMQ cream could reduce the mean body weight of the solvent group. […] However, there was no statistically significant difference between the treatment and solvent groups (FIG. 21)

[5] = test system: bleomycin-induced skin fibrosis; test: Bleomycin-induced skin fibrosis in mice: skin histopathology (dermal thickness, capillary density score, inflammatory cell infiltration score); assay type: in vivo, male C57BL/6 mice; settings: 50 mg/kg IP QD, 28 days
Method: The skin tissue of the lesioned skin was subjected to dehydration, embedding and sectioning according to the pathology SOP, and the tissue was stained by HE and Masson staining. Histopathological analysis was performed according to the following methods:
Masson-stained sections were panoramically scanned by using Nanozomer S210 and the scanned images were subjected to quantitative analysis using Visiopharm VIS6.0 software. The degree of fibrosis was currently represented by the dermal thickness after Masson staining.
The fields of observation was selected in the dermis layer of the lesioned area (the number of fields selected was determined according to the size of the lesioned area) and scored according to the area occupied by capillaries in the area: • 0: No capillary formed • 1: The proportion of capillaries formed was less than 25%; • 2: The proportion of capillaries formed was 25-50%; • 3: The proportion of capillaries formed was 50-75%; • 4: The proportion of capillaries formed was greater than 75%. 3.8.3 Inflammatory cell infiltration score of dermis layer
The fields of observation was selected in the dermis layer of the lesioned area (the number of fields selected was determined according to the size of the lesioned area) and scored according to the degree of inflammatory cell infiltration: • 0: No inflammatory cell infiltration: • 1: A small amount of focal inflammatory cell infiltration; • 2: Scattered diffuse inflammatory cell infiltration: • 3: A large amount of diffuse inflammatory cell infiltration; • 4: A large amount of agglomerated inflammatory cell infiltration.

[6] = test system: bleomycin-induced skin fibrosis; test: Bleomycin-induced skin fibrosis in mice: body weight, spleen weight, spleen/body weight ratio (Example 5); assay type: in vivo, male C57BL/6 mice; settings: 50 mg/kg IP QD, 28 days
Method: Isoflurane (2.0 to 2.5%) was used to anesthetize the animals. The fur of the back was removed, and a 1 cm^2 area was selected for intradermal injection of bleomycin (0.3 mg/kg, 100 μL) every two days to establish a skin fibrosis model.
Dosing started on the day of model establishment. Each animal was weighed for the animal body weight before dosing to calculate the volume of administration, wherein the period of administration was 28 days. […] Frequency of administration: twice a day for Nintedanib group and once a day for other groups.
The change in animal body weight was recorded twice a week from the date of model establishment. The clinical manifestations of animals, such as shortness and difficulty of breath, abdominal suction, decreased activity and malaise, were closely observed.
Animals were weighed at the experimental endpoints and the body weight was recorded to calculate the volume of administration. 6 h after dosing, firstly, whole blood was collected from the orbital venous plexus of mice and subjected to blood routine test using an automated Hematology analyzer (Sysmex XS-800i). […]
Then the animals were euthanized by intraperitoneal injection of pentobarbital sodium. The material and order of dissection were as follows: Spleen was collected and weighed and the weight was recorded. […]
The mean±SEM was calculated using Graphpad prism 6.0 software. […]

For `C[C@@H]1C[C@H]2[C@@H]3CCC4=CC(=O)C=C[C@]4(C)[C@@]3(F)[C@@H](O)C[C@]2(C)[C@@]1(O)C(=O)CO` [Dexamethasone], the “Area under the curve (AUC) of clinical score” value ([1]; 0.4 mg/kg PO QD × 16 days) was 7.68, the “Incidence rate (%)” value ([1]; Day 0) was 0% and the “Incidence rate (%)” value ([1]; Day 1) was 0%. The “Incidence rate (%)” value ([1]; Day 2) was 0%, the “Incidence rate (%)” value ([1]; Day 3) was 0% and the “Incidence rate (%)” value ([1]; Day 4) was 0%. The “Incidence rate (%)” value ([1]; Day 5) was 0%, the “Incidence rate (%)” value ([1]; Day 6) was 0% and the “Incidence rate (%)” value ([1]; Day 7) was 10%. For the same compound, the “Incidence rate (%)” value ([1]; Day 8) was 20%, the “Incidence rate (%)” value ([1]; Day 9) was 100% and the “Incidence rate (%)” value ([1]; Day 10) was 100%. The “Incidence rate (%)” value ([1]; Day 11) was 90%, the “Incidence rate (%)” value ([1]; Day 12) was 90% and the “Incidence rate (%)” value ([1]; Day 13) was 90%. The “Incidence rate (%)” value ([1]; Day 14) was 90%, the “Incidence rate (%)” value ([1]; Day 15) was 90% and the “Incidence rate (%)” value ([1]; Day 16) was 90%. The “Incidence rate (%)” value ([1]; Day −1) was 0%, the inhibition at 0.4 mg/kg ([1]; Rattus norvegicus, 384 h, 0.4 mg/kg PO QD × 16 days, vs model control, read-out: Inhibition rate of clinical score AUC) was 84.5% and the erythema score ([2]; Day 0) was 0. For the same compound, the scales score ([2]; Day 0) was 0, the thickness score ([2]; Day 0) was 0 and the “total score of erythema + scales + thickness” value (from here on “total score”) ([2]; Day 0) was 0. The erythema score ([2]; Day 1) was 0, the scales score ([2]; Day 1) was 0 and the thickness score ([2]; Day 1) was 0. The “total score” value ([2]; Day 1) was 0, the erythema score ([2]; Day 2) was 0 and the scales score ([2]; Day 2) was 0. The thickness score ([2]; Day 2) was 0, the “total score” value ([2]; Day 2) was 0 and the erythema score ([2]; Day 3) was 0.2. The scales score ([2]; Day 3) was 0, the thickness score ([2]; Day 3) was 0 and the “total score” value ([2]; Day 3) was 0. It also gave an erythema score ([2]; Day 4) of 0.1, a scales score ([2]; Day 4) of 0.2 and a thickness score ([2]; Day 4) of 0. The “total score” value ([2]; Day 4) was 0.3, the erythema score ([2]; Day 5) was 0.1 and the scales score ([2]; Day 5) was 0.2. The thickness score ([2]; Day 5) was 0, the “total score” value ([2]; Day 5) was 0.3 and the erythema score ([2]; Day 6) was 0. The scales score ([2]; Day 6) was 0.2, the thickness score ([2]; Day 6) was 0 and the “total score” value ([2]; Day 6) was 0.2. The erythema score ([2]; Day 7) was 0, the scales score ([2]; Day 7) was 0.1 and the thickness score ([2]; Day 7) was 0. The “total score” value ([2]; Day 7) was 0.1, the inhibition at 2 mg/kg ([2]; Mus musculus, 168 h, 2 mg/kg topical QD × 7 days, vs corresponding solvent group, read-out: inhibition rate (AUC of total clinical score)) was 97% and the “Rat body weight” value ([3]; Day 2) was 174.65 g. For the same compound, the “Weight change rate (%)” value ([3]; Day 2) was −7.26%, the “Rat body weight” value ([3]; Day 6) was 166.65 g and the “Weight change rate (%)” value ([3]; Day 6) was −11.53%. For the same compound, the “Rat body weight” value ([3]; Day 9) was 164.05 g, the “Weight change rate (%)” value ([3]; Day 9) was −12.92% and the “Rat body weight” value ([3]; Day 13) was 162.10 g. The “Weight change rate (%)” value ([3]; Day 13) was −13.99%, the “Rat body weight” value ([3]; Day 16) was 161.29 g and the “Weight change rate (%)” value ([3]; Day 16) was −14.44%. The “Rat body weight” value ([3]; Day −1) was 188.46 g, the “Weight change rate (%)” value ([3]; Day −1) was 0.00% and the “body weight (weight loss)” value [4] was “weight loss was more dramatic”.

In the case of `Cc1ccc(NC(=O)c2ccc(CN3CCN(C)CC3)cc2)cc1Nc1nccc(-c2cccnc2)n1` [Imatinib], the “inflammatory cell infiltration of the lesioned skin” value [5] is reported as “visibly reduce”, the subdermal capillary hyperplasia [5] is reported as “visibly reduce” and the death of animals [6] is reported as “One animal in Imatinib group died on Day 28”.
